Data set [1] relates to Frankliniella occidentalis (Western Flower Thrips). The experiment in a line: Example B8: Activity against Frankliniella occidentalis, sprayed sunflower leaf discs. The data set is classed as in vivo. To be noted: foliar, 168 h, application rate 200 ppm, mixed ages on sunflower leaf discs, 7 days after infestation. The method, then: Sunflower leaf discs were placed on agar in 24-well microtiter plates and sprayed with aqueous test solutions prepared from […] stock solutions. After drying the leaf discs were infested with a Frankliniella population of mixed ages. The samples were assessed for mortality 7 days after infestation.

Data set [2] has as its system Euschistus heros (Neotropical Brown Stink Bug). Put plainly: Example B9: Activity against Euschistus heros, sprayed soybean leaf. The data set is classed as in vivo. The settings on record: 120 h, application rate 200 ppm, N2 nymphs on soybean leaf, 5 days after infestation, read-out: effect in at least one of the two categories (mortality or growth inhibition). As for the experimental part:
Soybean leaf on agar in 24-well microtiter plates were sprayed with aqueous test solutions prepared from 10′000 ppm DMSO stock solutions. After drying the leaf were infested with N2 nymphs. The samples were assessed for mortality and growth inhibition in comparison to untreated samples 5 days after infestation.

Data set [3] has as its system Myzus persicae (Green Peach Aphid). Put plainly: Example B5: Activity against Myzus persicae, sprayed sunflower leaf discs. The data set is classed as in vivo. The settings on record: foliar, 144 h, application rate 200 ppm, mixed-age aphids on sunflower leaf discs, 6 days after infestation. The method, then:
Sunflower leaf discs were placed on agar in a 24-well microtiter plate and sprayed with aqueous test solutions prepared from 10′000 ppm DMSO stock solutions. After drying, the leaf discs were infested with an aphid population of mixed ages. The samples were assessed for mortality 6 days after infestation.

Data set [4] concerns Plutella xylostella (Diamond Back Moth). The experiment in a line: Example B3: Activity against Plutella xylostella, artificial diet, L2 larvae. To be noted: 120 h, application rate 200 ppm, L2 larvae on artificial diet, 5 days after infestation, read-out: effect in at least one of the two categories (mortality or growth inhibition). The data set is classed as in vivo. The method, then: 24-well microtiter plates with artificial diet were treated with aqueous test solutions prepared from 10′000 ppm DMSO stock solutions by pipetting. After drying, the plates were infested with L2 larvae (10 to 15 per well). The samples were assessed for mortality and growth inhibition in comparison to untreated samples 5 days after infestation.

For data set [5], the system named is Myzus persicae (Green Peach Aphid). The experiment in a line: Example B6: Activity against Myzus persicae, systemic via roots of pea seedlings. The data set is classed as in vivo. The settings on record: 144 h, test rate 24 ppm, pea seedling roots in test solution, 6 days. As for the experimental part: Roots of pea seedlings infested with an aphid population of mixed ages were placed directly in the aqueous test solutions prepared from 10′000 DMSO stock solutions. The samples were assessed for mortality 6 days after placing seedlings in test solutions.

The test system of data set [6] is Diabrotica balteata (Corn Root Worm). The experiment in a line: Example B4: Activity against Diabrotica balteata, sprayed maize sprouts. The data set is classed as in vivo. To be noted: 96 h, application rate 200 ppm, L2 larvae on maize sprouts, 4 days after infestation, read-out: effect in at least one of the two categories (mortality or growth inhibition). As for the experimental part: Maize sprouts placed onto an agar layer in 24-well microtiter plates were treated with aqueous test solutions prepared from 10′000 ppm DMSO stock solutions by spraying. After drying, the plates were infested with L2 larvae (6 to 10 per well). The samples were assessed for mortality and growth inhibition in comparison to untreated samples 4 days after infestation.

The test system of data set [7] is Bemisia tabaci (Cotton White Fly). Put plainly: Example B7: Activity against Bemisia tabaci, sprayed cotton leaf discs. The data set is classed as in vivo. To be noted: foliar, 144 h, application rate 200 ppm, adult white flies on cotton leaf discs, 6 days after incubation. The method, then:
Cotton leaf discs were placed on agar in 24-well microtiter plates and sprayed with aqueous test solutions prepared from 10′000 ppm DMSO stock solutions. After drying the leaf discs were infested with adult white flies. The samples were checked for mortality 6 days after incubation.

For data set [8], the system named is Spodoptera littoralis (Egyptian Cotton Leaf Worm). The experiment in a line: Example B1: Activity against Spodoptera littoralis, sprayed cotton leaf discs. The settings on record: foliar, 72 h, application rate 200 ppm, L1 larvae on cotton leaf discs, 3 days after infestation, read-out: control (at least one of mortality, anti-feedant effect, growth inhibition). The data set is classed as in vivo. As for the experimental part:
Cotton leaf discs were placed onto agar in 24-well microtiter plates and sprayed with aqueous test solutions prepared from 10′000 ppm DMSO stock solutions. After drying the leaf discs were infested with five L1 larvae. The samples were assessed for mortality, anti-feeding effect, and growth inhibition in comparison to untreated samples 3 days after infestation. Control of Spodoptera littoralis by a test sample is given when at least one of the categories mortality, anti-feedant effect, and growth inhibition is higher than the untreated sample.

Data set [9] has as its system Plutella xylostella (Diamond Back Moth). The experiment in a line: Example B12: Activity against Plutella xylostella, artificial diet, eggs. The data set is classed as in vivo. The settings on record: 192 h, application rate 200 ppm, eggs on artificial diet, 8 days after infestation, read-out: effect in at least one of the two categories (mortality or growth inhibition). The method, then:
24-well microtiter plates with artificial diet were treated with aqueous test solutions prepared from 10′000 ppm DMSO stock solutions by pipetting. After drying, Plutella eggs were pipetted through a plastic stencil onto a gel blotting paper and the plate was closed with it. The samples were assessed for mortality and growth inhibition in comparison to untreated samples 8 days after infestation.

The compound `CCSc1cc2c(cc1-c1nc3cc(C(F)(F)F)cnc3n1C)n(C#N)c(=O)n2C` showed a melting point of 255 to 257 °C.
The same measure, in the same setting: the figure for `CCSc1cc2c(cc1-c1nc3cc(C(F)(F)F)cnc3n1C)n(C)c(=O)n2CC` is 186 to 188 °C.
On the same count and under the same terms, under `CCSc1cc2c(cc1-c1nc3cc(SC(F)(F)F)ccc3o1)n(C)c(=O)n2C` stands 206 to 208 °C; under `CCSc1cc2c(cc1-c1nc3cc(C(F)(F)F)ccc3o1)n(C)c(=O)n2C`, 205 to 207 °C.
On to `CCn1c(=O)n(C)c2cc(-c3nc4cc(C(F)(F)F)ncc4n3C)c(S(=O)(=O)CC)cc21` [Compound P4, 1-ethyl-6-ethylsulfonyl-3-methyl-5-[3-methyl-6-(trifluoromethyl)imidazo[4,5-c]pyridin-2-yl]benzimidazol-2-one], for which the mortality at 200 ppm in data set [1] and in data set [3] was not below 80% in each case. The percent effect (mortality or growth inhibition) at 200 ppm in [2], in [4] and in [6] was not below 80% throughout. Also, the mortality at 24 ppm in [5] is not below 80%.
For the compound `CCSc1cc2c(cc1-c1nc3cc(C(F)(F)F)cnc3n1C)n(CC)c(=O)n2C` [Compound P7, 1-ethyl-5-ethylsulfanyl-3-methyl-6-[3-methyl-6-(trifluoromethyl)imidazo[4,5-b]pyridin-2-yl]benzimidazol-2-one], the percent effect (mortality or growth inhibition) at 200 ppm in [2], in data set [4] and in data set [6] was not below 80% throughout.
In the case of `CCS(=O)(=O)c1cc2c(nc1-c1nc3cc(C(F)(F)F)ncc3n1C)n(C)c(=O)n2C` [Compound P8, 6-ethylsulfonyl-1,3-dimethyl-5-[3-methyl-6-(trifluoromethyl)imidazo[4,5-c]pyridin-2-yl]imidazo[4,5-b]pyridin-2-one], the mortality at 200 ppm in data set [1], in [3] and in data set [7] was not below 80% in each case. For the same compound, the percent effect (mortality or growth inhibition) at 200 ppm in data set [2] and in data set [4] was not below 80% in each case. This compound also came in with a mortality at 24 ppm in data set [5] not below 80%.
Take `CCS(=O)(=O)c1cc2c(cc1-c1nc3cc(C(F)(F)F)cnc3n1C)n(C#N)c(=O)n2C` [Compound P14, 5-ethylsulfonyl-3-methyl-6-[3-methyl-6-(trifluoromethyl)imidazo[4,5-b]pyridin-2-yl]-2-oxo-benzimidazole-1-carbonitrile]: the mortality at 200 ppm in [1] and in data set [3] was not below 80% throughout. The percent effect (mortality or growth inhibition) at 200 ppm in data set [2] was not below 80%. The mortality at 24 ppm in data set [5] is not below 80%.
Take `CCS(=O)(=O)c1cc2c(cc1-c1nc3cc(C(F)(F)F)cnc3n1C)n(CS(C)(=O)=O)c(=O)n2C` [Compound P16, 6-ethylsulfonyl-1-methyl-3-(methylsulfonylmethyl)-5-[3-methyl-6-(trifluoromethyl)imidazo[4,5-b]pyridine-2-yl]benzimidazol-2-one]: the mortality at 200 ppm in data set [1] and in data set [3] was not below 80% each time. The percent effect (mortality or growth inhibition) at 200 ppm in [2] was not below 80%. This compound came in with a mortality at 24 ppm in data set [5] not below 80%.
On to `CCS(=O)(=O)c1cc2c(cc1-c1nc3cc(C(F)(F)F)cnc3n1C)n(COC)c(=O)n2C` [Compound P18, 5-ethylsulfonyl-1-(methoxy-methyl)-3-methyl-6-[3-methyl-6-(trifluoromethyl)imidazo[4,5-b]pyridine-2-yl]benzimidazol-2-one], for which the percent effect (mortality or growth inhibition) at 200 ppm in data set [2], in [4] and in data set [6] was not below 80% each time. Moreover, in data set [3], the mortality at 200 ppm was not below 80%. Moreover, the mortality at 24 ppm in [5] is not below 80%.
Consider `CCS(=O)(=O)c1cc2c(nc1-c1nc3cc(C(F)(F)F)cnc3n1C)n(C)c(=O)n2C` [Compound P22, 6-ethylsulfonyl-1,3-dimethyl-5-[3-methyl-6-(trifluoromethyl)imidazo[4,5-b]pyridine-2-yl]imidazo[4,5-b]pyridine-2-one], for which the mortality at 200 ppm in data set [1], in [3] and in [7] was not below 80% throughout. For the same compound, the percent effect (mortality or growth inhibition) at 200 ppm in data set [2], in data set [4] and in data set [6] was not below 80% in each case. The compound further registered a mortality at 24 ppm in [5] not below 80%. For the same compound, the percent control (mortality, anti-feedant effect or growth inhibition) at 200 ppm in data set [8] is not below 80%.
As for `CCS(=O)(=O)c1cc2c(cc1-c1nc3cc(SC(F)(F)F)ccc3n1C)n(C)c(=O)n2C` [Compound P36, 5-ethylsulfonyl-1,3-dimethyl-6-[1-methyl-5-(trifluoromethyl-sulfanyl)benzimidazol-2-yl]benzimidazol-2-one], the percent effect (mortality or growth inhibition) at 200 ppm in data set [2], in data set [9] and in data set [6] was not below 80% in each case. Further, the mortality at 200 ppm in [3] and in data set [7] was not below 80% in each case. The compound also returned a mortality at 24 ppm in data set [5] not below 80%.
As for `CCS(=O)(=O)c1cc2c(nc1-c1nc3cc(SC(F)(F)F)ccc3n1C)n(C)c(=O)n2C` [Compound P38, 6-ethylsulfonyl-1,3-dimethyl-5-[1-methyl-5-(trifluoromethyl-sulfanyl)benzimidazol-2-yl]imidazo[4,5-b]pyridin-2-one], the mortality at 200 ppm in data set [1], in [3] and in [7] was not below 80% each time. The percent effect (mortality or growth inhibition) at 200 ppm in data set [9] and in data set [6] was not below 80% each time. Also, in data set [5], the mortality at 24 ppm was not below 80%. Also, in data set [8], the percent control (mortality, anti-feedant effect or growth inhibition) at 200 ppm is not below 80%.
As for `CCS(=O)(=O)c1cc2c(nc1-c1nc3cc(S(=O)(=O)C(F)(F)F)ccc3n1C)n(C)c(=O)n2C` [Compound P39, 6-ethylsulfonyl-1,3-dimethyl-5-[1-methyl-5-(trifluoromethyl-sulfonyl)benzimidazol-2-yl]imidazo[4,5-b]pyridine-2-one], the percent effect (mortality or growth inhibition) at 200 ppm in data set [2] and in [9] was not below 80% throughout. For the same compound, the mortality at 200 ppm in data set [3] and in data set [7] was not below 80% each time. The compound further gave a mortality at 24 ppm in data set [5] not below 80%. The percent control (mortality, anti-feedant effect or growth inhibition) at 200 ppm in data set [8] was not below 80%.
As to `CCS(=O)(=O)c1cc2c(nc1-c1nc3cc([S+]([O-])C(F)(F)F)ccc3o1)n(C)c(=O)n2C` (centres unmarked) [Compound P45, 6-ethylsulfonyl-1,3-dimethyl-5-[5-(trifluoromethylsulfinyl)-1,3-benzoxazol-2-yl]imidazo[4,5-b]pyridin-2-one], the mortality at 200 ppm in data set [1] was not below 80%. In addition, the percent effect (mortality or growth inhibition) at 200 ppm in data set [2], in data set [9] and in data set [6] was not below 80% each time. The same compound displayed a mortality at 24 ppm in data set [5] not below 80%. Besides, the percent control (mortality, anti-feedant effect or growth inhibition) at 200 ppm in data set [8] is not below 80%.

By melting point is commonly meant the temperature of the solid-liquid transition. Usually mortality stands for the percentage killed. Low readings indicate more survivors, high ones fewer survivors.
